Results: paper PMC12435400, “Thymidine Phosphorylase Inhibitory Potential and Molecular Docking Studies of Secondary Metabolites Isolated From Fernandoa adenophylla (Wall. ex G. Don) Steenis” (Chemistry & Biodiversity, 2025)
Where two headings read alike, the source gives them in different places.

Experiments:
[1] = target: T1, recombinant EcTP enzyme (thymidine phosphorylase) (Escherichia coli, UniProt P07650); assay: biochemical
T1 construct: purchased
Description: (§1) In this study, we utilized commercially available recombinant EcTP enzyme as a model for TP inhibition assessment due to its structural similarities with mammalian TP enzymes. Spectrophotometric TP inhibition assays were conducted by incubating 0.058 U of EcTP enzyme with 500 µM of test compounds at 30°C for 10 min. Subsequently, 1.5 mM of thymidine substrate was added, and absorbance changes were monitored for 10 min at 290 nm using a microplate reader. […] Mechanistic studies involved incubating the TP enzyme with varying inhibitor concentrations and substrate concentrations ranging from 0.1875 to 1.5 µM. Enzyme activity was assessed by measuring absorbance changes for an additional 10 min. Triplicate experiments were conducted for mechanistic investigations to ensure the results' robustness.

[2] = target: T2, thymidine phosphorylase (EcTP) (Escherichia coli, UniProt P07650); assay: biochemical
T2 construct: purchased
T2 sequence (P07650 whole entry): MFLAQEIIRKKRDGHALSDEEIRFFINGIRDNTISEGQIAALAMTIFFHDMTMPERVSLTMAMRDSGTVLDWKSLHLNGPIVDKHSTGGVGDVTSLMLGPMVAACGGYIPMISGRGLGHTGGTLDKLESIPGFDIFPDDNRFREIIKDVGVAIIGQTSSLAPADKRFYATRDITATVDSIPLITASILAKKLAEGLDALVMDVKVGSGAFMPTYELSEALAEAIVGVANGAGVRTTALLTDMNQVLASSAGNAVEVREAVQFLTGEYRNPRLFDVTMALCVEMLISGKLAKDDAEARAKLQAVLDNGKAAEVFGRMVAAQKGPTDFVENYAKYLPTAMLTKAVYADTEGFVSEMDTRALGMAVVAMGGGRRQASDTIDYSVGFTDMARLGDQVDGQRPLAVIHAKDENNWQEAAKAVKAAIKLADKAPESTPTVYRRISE
Description: Mechanism‐based studies were carried out on the selected compounds, that is, 1, 2, and 5.
as §1
Chemical reactions were examined using kinetic studies to determine their rates, mode of inhibition, and the variables influencing these characteristics. The kind and mechanism of inhibition of derivatives are ascertained here. Test compounds (0.5–500 µM) were incubated with TP (0.058 U/200 µL) for 10 min at 30°C in mechanistic studies. The addition of various thymidine concentrations (varying from 0.1875 to 1.5 µM) then started the process. Thymidine cleavage was tracked at 290 nm for ten min straight using an ELISA plate reader (SpectraMax 384; Molecular Devices, San Jose, CA, USA).

[3] = 500 µM test compound, 0.058 U EcTP, 1.5 mM thymidine, 30°C, read-out: % Inhibition
[4] = EcTP, thymidine substrate, absorbance at 290 nm, triplicate, read-out: IC50 ± SEM
[5] = dissociation constant from secondary replot of Lineweaver-Burk and Dixon plots, unit printed in text b13 only, read-out: Ki ± SEM
[6] = thymidine as variable substrate

T1 sequence (P07650 whole entry): as above

SMILES | inhibition at 500 µM [1, 3] | IC50 [1, 4] | Ki [2, 5] | Type of Inhibitor [2, 6] | inhibition at 500 µM [1] | Type of Inhibitor [2] | IC50 [1] | Ki [2]
CC1(C)C=CC2=C(O1)C(=O)c1ccccc1C2=O [Dehydro‐α‐lapachone (4), Dehydro‐α‐lapachone] | 82.6% | 17.2 ± 1 µM | – | – | – | – | – | –
CC1(C)CCC2=C(O1)C(=O)c1ccccc1C2=O [Alpha‐lapachone (2), Alpha‐lapachone] | 88.3% | 3.6 ± 0.9 µM | 4.9 ± 0.008 µM | Non‐competitive | – | – | – | –
CC(C)=C(C)[C@H]1C[C@]2(C)OC3=C(C(=O)c4ccccc4C3=O)[C@H]3[C@@H]2[C@@]12C(=O)c1ccccc1[C@@]3(O)C2=O [Peshawaraquinone (3), Peshawaraquinone] | 87.1% | 4.9 ± 0.8 µM | – | – | – | – | – | –
O=c1[nH]c(=O)c2cc[nH]c2[nH]1 [7‐Deazaxanthine, reference compound] | – | – | – | – | 80.6% | Non‐competitive | – | –
COC(=O)C1(O)c2ccccc2C(=O)C1(O)CC=C(C)C (stereo not drawn) [Indanone derivative (5), Methyl‐1,2‐dihydroxy‐2‐(3‐methylbut‐2‐en‐1‐yl)‐3‐oxo‐2,3‐dihydro‐1H‐indene‐1carboxylate] | – | – | – | Non‐competitive | 91.3% | – | 1.8 ± 0.5 µM | 7.1 ± 0.009 µM
CC(C)=CCC1=C(O)C(=O)c2ccccc2C1=O [Lapachol (1), Lapachol] | 86.2% | 2.3 ± 0.1 µM | 4.6 ± 0.006 µM | Non‐competitive | – | – | – | –
